Measurements: patent publication US8772243B2, “Methods for predicting the response to anti-cancer treatment with an agonist of TLR7 or an agonist of TLR8” (Inserm (Institut National de la Sante et de la Recherche …, priority 2008, dated 2014)

Tests used:
A549 cells [1] = assay: Percentage of dead cells by Trypan blue exclusion; format: cell-based, human; conditions: 24 h
Procedure: (§1) FIG. 4 TLR7 and 8 induce survival of lung tumor cells. (A) A549 cells were unstimulated, stimulated with loxoribine (10 μg/ml), Poly U (10 μg/ml), or Gardiquimod(10μg/ml) and incubated with Alamar blue for 10 days. Reduction of Alamar blue was then determined by spectrophotometry at 570 and 600 nm. The percentage of reduced Alamar blue was calculated as described by the manufacturer. A549 cells were unstimulated or stimulated with loxoribine, Poly U, Gardiquimod, etoposide, or cycloheximide for 24 h. (B) The percentage of dead cells was determined by Trypan blue exclusion. (C) The DNA content was measured by IP staining after RNAse A treatment. The percentages indicate the proportion of subdiploid (G0/G1) and […]. Data represent mean values±SD from 3 independent experiments (*p<0.05; ** p<0.01, Student test). (D) A549 cells were cultured for 6 h in the presence of loxoribine, Poly U, or Gardiquimod, and the expression of Bcl-2 was assayed using Taq Man Low Density Array technology. The ΔCT values for Bcl-2 expression were calculated by subtraction of the CT value obtained for the 18S housekeeping gene. The ΔΔCT values were obtained by subtraction of ΔCT values for unstimulated cells from those obtained for stimulated cells. The fold increase (arbitrary unit) was obtained by 2^−ΔΔCT.

A549 cells [2] = assay: Cell cycle analysis (propidium iodide staining); format: cell-based, human; conditions: PI staining
Procedure: as §1
A549 cells were cultured in the presence of loxoribine, Poly U, Gardiquimod, etoposide, or cycloheximide. After 48 h, the cells were harvested, washed in cold PBS, and fixed with 2 ml of 70% cold ethanol in PBS for 2 h at 4° C. After centrifugation, the supernatant was removed and the pellet was rinsed with 0.5% PBS Tween. It was then incubated with […] of RNAse A and 50 μg of propidium iodide in PBS. Propidium iodide staining was determined with a FACScalibur cytometer.

[3] = tested on: 1549, H1355 and SK-MES cells; assay: Chemoresistance by colony formation assay; format: cell-based, human; conditions: concentration added on day 12 of colony formation assay
Procedure: Alternatively, chemoresistance was assessed by the colony formation assay. In this assay, 1549, H1355 and SK-MES cells were seeded in 6-well plates (500 cells per well) and incubated for 15 days at 37° under 5% CO2. The cells were left unstimulated or stimulated 100 μM Loxoribine or with 10 μg/ml single-stranded polyU RNA (InvivoGen) on days 0, 3, 6 and 9. On day 12, different anti-cancer agents were added at the respective LD50 (cisplatin and carboplatin 100 μM, navelbine 50 μM, doxorubicine 2 nM). On day 15, the wells ware washed with PBS, and stained with 6% (vol/vol) glutaraldehyde, 0.5% (wt/vol) crystal violet in water for 30 minutes. The cells were washed and the colonies of more than 50 cells counted. Cell survival was calculated as follows: number of colonies after chemotherapy/number of cells seeded on day 0×plating efficiency, where the plating efficiency is number of colonies/number of cells seeded.

A549 and SK-MES cells [4] = assay: Chemoresistance assay (Trypan blue and Alamar blue); format: cell-based, human; conditions: Alamar blue reduction
Procedure: FIG. 5 TLR7 and 8 induce chemoresistance of lung tumor cells. A549 (A-C) or SK-MES cells (D-F) were cultured with or without loxoribine or Poly U for 48 h, and then left untreated or were treated with cycloheximide, cisplatine, carboplatine, doxorubicine, or Navelbine. After 36 h, the percentage of dead cells was determined by Trypan blue exclusion (A, D) and cell viability was analyzed by the reduction of Alamar blue (B, C, E and F). Data represent mean values±SD from 3 independent experiments (*p<0.05; **p<0.01, ***p<0.001, Student test).
A549 and SK-MES cells were seeded in 96-well plates (1000 cells per well) and left unstimulated or were stimulated with loxoribine, Poly U, or Gardiquimod for 48 h. Cisplatine, carboplatine, doxorubicine, Navelbine, or cycloheximide was then added for an additional 36 h. The optical density in each well was determined 24 h after the addition of Alamar blue at 540 nm and 570 nm. Alternatively, viable and dead cells were counted using Trypan blue.

A549 cells [5] = assay: A549 xenograft in NOD/SCID mice; format: in vivo; conditions: for factor of reduction of tumor size by chemotherapy: cisplatine 2 mg/kg/injection i.p.
Procedure: Mice were anesthetized by intra-peritoneal injection of a solution containing 3.2 mg of ketamine (Virbac) and 0.16 mg of xylasine (Rompum 2%, Bayer Healthcare) in 80 μl of PBS (Gibco). Five days prior to experimentation, A549 cells were pre-stimulated with 100 μM Loxoribine (Invivogen) or left unstimulated. For each condition 5×10^6 cells were diluted in 250 μl PBS and injected subcutaneously to 5 mice per group and were re-stimulated either with 50 μl PBS or with 100 nmol of Loxoribine diluted in 50 μl PBS. Stimulating injections into the tumor site were carried out on the day the cells were injected and then on days 3, 6 and 9. The mice then received either 120 μA PBS, or a chemotherapy of cisplatine (2 mg/kg/injection diluted in 120 μl PBS) on days 18, 20 and 22, both intra-peritoneal. The volume of the tumor was determined by measuring the length (Lg), the width (Wi) of the tumor and by calculating (Lg*(Wi*Wi)/2.

[6] = tested on: Bcl-2 expression in A549 cells; assay: Bcl-2 expression, Taq Man Low Density Array, A549; format: cell-based, human; conditions: 6 h, RT-PCR
Procedure: as §1, with “The fold increase (arbitrary unit) was obtained by 2^−ΔΔCT.” left out
Total RNA was extracted from A549 or SK-MES cells stimulated with loxoribine, Poly U, or Gardiquimod for 6 h or from purified human lung cancer cells using the RNeasy isolation-kit RNA (Qiagen, Courtaboeuf, France). The integrity and the quantity of the RNA were evaluated with a bioanalyzer-2100 (Agilent Technologies). All samples were assessed for gene expression analysis using the Taq Man Low-Density Array angiogenesis and immune panel (Applied Biosystem). […] Quantitative real-time TaqMan-PCR was performed using Low-Density-Arrays and the 7900 robotic real-time PCR-system (Applied-Biosystems). […] Data were analyzed using the SDS Software v2.2 (Applied-Biosystems). The ΔCT values were calculated for each gene by subtraction of the CT value of the 18S housekeeping gene from the CT of the gene of interest. […]

[7] = tested on: Bcl-2 expression in SCC SK-MES cells; assay: Bcl-2 expression, SK-MES; format: cell-based, human; conditions: data not shown
Procedure: (§2) Total RNA was extracted from A549 or SK-MES cells stimulated with loxoribine, Poly U, or Gardiquimod for 6 h or from purified human lung cancer cells using the RNeasy isolation-kit RNA (Qiagen, Courtaboeuf, France). The integrity and the quantity of the RNA were evaluated with a bioanalyzer-2100 (Agilent Technologies). All samples were assessed for gene expression analysis using the Taq Man Low-Density Array angiogenesis and immune panel (Applied Biosystem). The RT-PCR experiments were carried-out according to the manufacturer's instructions (Applied-Biosystems). Quantitative real-time TaqMan-PCR was performed using Low-Density-Arrays and the 7900 robotic real-time PCR-system (Applied-Biosystems). The 18S primers and probes were used as internal controls. Data were analyzed using the SDS Software v2.2 (Applied-Biosystems). The ΔCT values were calculated for each gene by subtraction of the CT value of the 18S housekeeping gene from the CT of the gene of interest. The ΔΔCT values were obtained by subtraction of the ΔCT values for unstimulated cells from the […]. The fold increase (arbitrary unit) was obtained by 2^−ΔΔCT.

A549 cells [8] = assay: Tumor cell proliferation assay (Alamar blue reduction); format: cell-based, human; conditions: 10 μg/ml, ten days
Procedure: as §1
Human lung cancer cell lines were seeded in 96-well plates (800 cells per well) and left unstimulated or were stimulated with loxoribine, Poly U, or Gardiquimod. The proliferation assay was performed with Alamar blue (AbD Serotec, Cergy Pontoise, France) according to the manufacturer's instructions. Briefly, cells were seeded and stimulated with TLR ligands in 100 μl of medium, and 10 μl of Alamar Blue was added. The optical density in each well was determined at 540 nm and 570 nm after 10 days of culture, and the percentage of reduced Alamar blue was determined. The percentage of reduced Alamar blue in unstimulated cells was determined as 100%, and the percentages of the stimulated cells were determined relative to this value.

A549 and SK-MES cells [9] = assay: Transcriptomic analysis of 182 genes (Taq Man Low Density Array); format: cell-based, human; conditions: 6 h stimulation; versus unstimulated cells
Procedure: FIG. 6 TLR7 and 8 induce regulation of gene transcription. A549 or SK-MES cells were cultured for 6 h in the presence of loxoribine, Poly U, or Gardiquimod. Total RNA was extracted and analyzed for the expression of 182 genes using Taq Man Low Density Array technology. All genes with a value greater than 35 (CT) were excluded from the analysis. The ΔCT values for the expression of all genes were calculated by subtraction of the CT value of the 18S housekeeping gene. The ΔΔCT values were obtained by subtraction of the ΔCT values for unstimulated cells from those obtained for TLR7- or 8-stimulated cells. The fold increase (arbitrary unit) was obtained by 2^−ΔΔCT. Values were then clustered using the Genesis Software.
as §2

[10] = tested on: IκBα (NF-κB activation) in A549 cells; assay: Western blot of IκBα phosphorylation and degradation (NF-κB activation) in A549 cells; format: cell-based, human; conditions: TNF-α 10 ng/ml
Procedure: FIG. 3 TLR7 and TLR8 lead to IκBα phosphorylation, but not degradation. A549 cells were untreated or treated with TNF-α (10 ng/ml) (A, B), loxoribine (10 μg/ml) (C, D), or Poly U (10 μg/ml) (E, F) for the indicated periods of time. The cell lysates were analyzed by immunoblot with anti-phospho-specific IκBα, anti-IκBα and anti-actin antibodies (A, C, E). Quantification of the bands was realized using Image J software (B, D, F). Histograms represent the intensity of each band observed in the blots at the indicated time point and are expressed in arbitrary units normalized to actin intensity (relative intensity) both for phospho-IκBα and IκBα. Results are representative of three independent experiments.
A549 cells (1.10^6 cells) were starved for 4 hours in medium containing 2% FCS, and then stimulated with loxoribine, PolyU, or TNFα (10 ng/ml) for different periods of time as indicated. Cells were lysed in 50 mM Tris-HCl, pH 7.5, 150 mM NaCl, 2 mM EDTA, 0.5% triton X100, 2 mM Na3VO4, 10 mM NaF, and 10 mM sodium pyrophosphate supplemented with a complete protease inhibitor cocktail (Boehringer, Paris, France). Protein contents in the cell lysates were quantified using the quick start Bradford protein assay kit (Biorad, Marnes-La-Coquette, France) to ensure that all samples contained similar amounts of protein. Proteins (30 μg) were resolved in 10% Tris-glycine polyacrylamide gels (Invitrogen, Cergy Pontoise, France) and transferred to PVDF immobilon-P membranes (Millipore, Molsheim, France). Blots were probed with monoclonal antibody against phospho-IκBα (Cell Signaling Technology, Danvers, USA), total IκBα, and actin (Santa Cruz, Le Perray en Yvelines, France).
In order to determine if the TLR7 and 8 expressed by lung tumor cell lines were able to induce intracellular signaling pathways, we studied NF-κB activation in response to stimulation with TNFα, loxoribine (homodimeric TLR7 ligand), or Poly U (homodimeric TLR8 ligand). […] In contrast TLR7 or 8 stimulation led to atypical NF-κB activation. […] Furthermore, we also observed that the kinetics of IκBα phosphorylation were dependent on the stimulus. On the one hand, TNFα stimulation induced two waves of IκBα phosphorylation; the first one after ten minutes was associated with IκBα degradation, and the second one after sixty minutes was not associated with IκBα degradation. On the other hand, we observed that TLR stimulation induced only a phosphorylation of IκBα, with a maximum phosphorylation obtained after thirty minutes without degradation of IκBα.

## C[C@@H]1C[C@@H]([C@H](O)CC2CC(=O)NC(=O)C2)C(=O)[C@@H](C)C1 [cycloheximide]
A549 cells [1]
  increase in the percentage of dead cells (positive controls): 2.5 fold
A549 cells [2]
  proportion of cells in G0/G1 or G2/M phases versus unstimulated cells: significant reduction in the percentage of cells in G0/G1 or G2/M

## [NH2][Pt]([NH2])([Cl])[Cl] [cisplatine]
[3]
  LD50: 100 µM
A549 and SK-MES cells [4]
  reduction in cell viability by chemotherapy, comparison of drugs: more potent inducers of cell death
A549 cells [5]; Loxoribine-stimulated group
  factor of reduction of tumor size by chemotherapy: 1.6 factor
A549 cells [5]; NS group
  factor of reduction of tumor size by chemotherapy: 3 factor
A549 cells [5]; NS group, cisplatine 2 mg/kg/injection i.p. days 18, 20, 22
  tumor volume seven weeks after injection of tumor cells: 0.6 cm^3

## CCNCc1nc2c(N)nc3ccccc3c2n1CC(C)(C)O [Gardiquimod]
[6]
  Bcl-2 expression compared to untreated cells: increased expression of Bcl-2
[7]
  increase in Bcl-2 expression: 100 fold
A549 cells [8]
  increase in reduction of Alamar blue versus unstimulated cells: 20%
A549 cells [2]
  proportion of cells in G0/G1 or G2/M phases versus unstimulated cells: did not observe any significant differences
A549 and SK-MES cells [9]
  genes down-regulated in both SK-MES and A549 cells: Prolactin (PRL), CD80, Fibronectin-1 (FN-1), A Disintegrin And Metalloproteinase with ThromboSpondin motif 1 (ADAMTS1), and Serpin Peptidase Inhibitor Clade C1 (SERPINC1)
  genes up-regulated in A549 cells, but down-regulated in SK-MES cells: Angiopoietin like 3 (ANGPTL3), Serpin Peptidase Inhibitor Clade F1 (SERPINF1), and Angiopoietin 1 (ANGPT1)
  genes up-regulated in SK-MES, but down-regulated in A549 cells: ANGPTL1, Platelet Factor 4 (PF4), and fms related tyrosine kinase 4 (FLT4)
  genes up-regulated in both SK-MES and A549 cells: Bcl-2, CCR4, and Vasohibin-1 (VASH-1)

## TNFα
[10]
  first wave of IκBα phosphorylation, associated with IκBα degradation: ten
  second wave of IκBα phosphorylation, not associated with IκBα degradation: sixty
[10]; loxoribine or Poly U 10 μg/ml
  IκBα degradation / type of NF-κB activation: IκBα phosphorylation and degradation

## COc1cccc2c1C(=O)c1c(O)c3c(c(O)c1C2=O)C[C@@](O)(C(=O)CO)C[C@@H]3O[C@H]1C[C@H](N)[C@H](O)[C@H](C)O1 [doxorubicine]
[3]
  LD50: 0.002 µM

## [NH2][Pt]1([NH2])[O]C(=O)C2(CCC2)C(=O)[O]1 [carboplatine]
[3]
  LD50: 100 µM
A549 and SK-MES cells [4]
  reduction in cell viability by chemotherapy, comparison of drugs: more potent inducers of cell death

## CCC1=C[C@@H]2CN(C1)Cc1c([nH]c3ccccc13)[C@@](C(=O)OC)(c1cc3c(cc1OC)N(C)[C@H]1[C@@](O)(C(=O)OC)[C@H](OC(C)=O)[C@]4(CC)C=CCN5CC[C@]31[C@@H]54)C2 [Navelbine]
[3]
  LD50: 50 µM

## COc1cc([C@@H]2c3cc4c(cc3[C@@H](O[C@@H]3O[C@@H]5CO[C@@H](C)O[C@H]5[C@H](O)[C@H]3O)[C@H]3COC(=O)[C@H]23)OCO4)cc(OC)c1O [etoposide]
A549 cells [1]
  increase in the percentage of dead cells (positive controls): 2.5 fold
A549 cells [2]
  proportion of cells in G0/G1 or G2/M phases versus unstimulated cells: significant reduction in the percentage of cells in G0/G1 or G2/M
